The source of these data is ChEMBL document CHEMBL1914390, “A new method for induced fit docking (GENIUS) and its application to virtual screening of novel HCV NS3-4A protease inhibitors” (Bioorg Med Chem, 2011).

pEC50, pIC50: −log10 of the molar value.

Data set [1] in a line: Inhibition of HCV recombinant N-terminal histidine-tagged NS3/4A protease expressed Escherichia coli using Mca-Asp-Asp-Ile-Val-Pro-Cys-Ser-Met-Lys(Dnp)-Arg-Arg as fluorogenic substrate after 30 mins by FRET assay. On the set-up: species or system Hepacivirus hominis.
The next data set relates to Hepatitis C virus. Description: Antiviral activity against Hepatitis C virus infected in human Huh7/Rep-Feo cells assessed as inhibition of viral replication after 72 hrs by luciferase assay. The format is functional, organism-based, Hepacivirus hominis. Particulars: Huh-7, 72 h.
Data set [2] can be described thus: Cytotoxicity against human HuH7 cells expressing chimeric gene encoding firefly luciferase and neomycin phosphotransferase assessed as cell proliferation after 72 hrs by MTT assay. It is filed as cell-based, Huh-7.
The nature of data set [3]: Cytotoxicity against human HuH7 cells expressing chimeric gene encoding firefly luciferase and neomycin phosphotransferase assessed as cell viability after 72 hrs by cell titer-glo luminescent assay. The format is cell-based, Huh-7.
Data set [4] is described as follows: Selectivity index, ratio of CC50 for human HuH7 cells expressing chimeric gene encoding firefly luciferase and neomycin phosphotransferase by cell titer-glo luminescent cell viability assay to EC50 for HCV. On the set-up: species or system Huh-7.
Data set [5] relates to Hepacivirus hominis. Briefly: Ratio of EC50 for HCV to IC50 for HCV recombinant N-terminal histidine-tagged NS3/4A protease.
Data set [6] concerns Hepacivirus hominis. Description: Inhibition of HCV recombinant N-terminal histidine-tagged NS3/4A protease expressed Escherichia coli using Mca-Asp-Asp-Ile-Val-Pro-Cys-Ser-Met-Lys(Dnp)-Arg-Arg as fluorogenic substrate at 100 uM after 30 mins by FRET assay.
The nature of data set [7]: Selectivity index, ratio of CC50 for human HuH7 cells expressing chimeric gene encoding firefly luciferase and neomycin phosphotransferase by MTT assay to EC50 for HCV. On the set-up: species or system Huh-7.

Regarding `COc1ccc(C(=O)Cc2ccc3ccccc3c2/C=N/NC(=O)COc2ccc([N+](=O)[O-])cc2)cc1`, in data set [1], the negative logarithm of the IC50 (pIC50) was 4.19. The pEC50 in the data set with Hepatitis C virus was 5.07. Further, the CC50 at 72 h in data set [2] is more than 125 µM; in data set [3] it was 9 µM. The “Ratio CC50/EC50” value in data set [4] stood at 1.1.

`CCc1cc(OCc2ccc([N+](=O)[O-])cc2)c(OC)cc1/C=N/NC(=O)c1cc2cc([N+](=O)[O-])ccc2o1`: in data set [1], the pIC50 was 4.92.

Turning to `CC(Oc1ccc([N+](=O)[O-])cc1)C(=O)N/N=C/c1ccccc1OC(=O)c1sc2ccccc2c1Cl` (centres undefined), the negative logarithm of the IC50 (pIC50) in data set [1] is 6.00. The negative logarithm of the EC50 (pEC50) with Hepatitis C virus was 4.90. The figures for the CC50 at 72 h in data set [2] and in data set [3] were more than 125 µM and 19 µM, respectively. Further, the Ratio in the data set on Hepacivirus hominis [5] was 10. Besides, in data set [4], the “Ratio CC50/EC50” value turned out to be 1.5.

In the case of `COc1cc(/C=N/NC(=O)c2cc3cc([N+](=O)[O-])ccc3o2)ccc1OCc1ccc([N+](=O)[O-])cc1`, in data set [1], the pIC50 is 5.07. In addition, the pEC50 in the data set on Hepatitis C virus was 4.92. In addition, the half-maximal cytotoxic concentration (CC50) at 72 h in data set [2] was more than 125 µM; in data set [3], more than 80 µM. The “Ratio CC50/EC50” value in data set [4] is on record as more than 9.3.

As for `O=C(COc1ccc([N+](=O)[O-])cc1)N/N=C/c1ccccc1OC(=O)c1sc2ccccc2c1Cl`, the negative logarithm of the IC50 (pIC50) in data set [1] is 5.97. Besides, the pEC50 with Hepatitis C virus is 4.71. Moreover, the CC50 at 72 h was more than 125 µM in data set [2] and 40 µM in data set [3]. Further, the Ratio in the data set on Hepacivirus hominis [5] stood at 10. For the same molecule, the “Ratio CC50/EC50” value in data set [4] is 2.1.

Take `COc1cc(/C=N/NC(=O)C(C)Oc2ccc([N+](=O)[O-])cc2)ccc1OC(=O)c1sc2ccccc2c1Cl` (centres undefined): the negative logarithm of the IC50 (pIC50) in data set [1] was 5.39. Further, the pEC50 in the data set on Hepatitis C virus was 3.92. Further, in data set [2], the CC50 at 72 h was more than 125 µM. Also, in the data set with Hepacivirus hominis [5], the Ratio came out at 10.

With `COc1cc(/C=N/NC(=O)c2cc3cc([N+](=O)[O-])ccc3o2)c(C)cc1OCc1ccc([N+](=O)[O-])cc1`, in data set [1], the negative-log IC50 (pIC50) was 4.77.

For `COc1cc(/C=N/NC(=O)c2cc3cc([N+](=O)[O-])ccc3o2)cc([N+](=O)[O-])c1OCc1ccc([N+](=O)[O-])cc1`, the negative-log IC50 (pIC50) in data set [1] was 5.08.

As to `CCCOc1ccc(C(=O)Oc2ccc(/C=N/NC(=O)COc3ccc([N+](=O)[O-])cc3)cc2OCC)cc1`, the inhibition in the data set on Hepacivirus hominis [6] came to 38%. In addition, the pEC50 in the data set with Hepatitis C virus is 4.89. In data set [2], the CC50 at 72 h was more than 125 µM. In addition, the “Ratio CC50/EC50” value in data set [7] is recorded as more than 9.6.

Turning to `CCC(C)Oc1ccc(/N=N/C(=O)c2cc3cc([N+](=O)[O-])ccc3o2)cc1Br` (centres undefined), in data set [1], the negative logarithm of the IC50 (pIC50) is 4.64. The pEC50 in the data set with Hepatitis C virus is 4.87. The figures for the cytotoxic concentration (CC50) at 72 h in data set [2] and in data set [3] were 57 µM and 36 µM, respectively. Moreover, the “Ratio CC50/EC50” value in data set [4] stood at 2.6.

Turning to `C=CCc1cc(/N=N/C(=O)c2cc3cc([N+](=O)[O-])ccc3o2)cc(OCC)c1OCc1ccc(Cl)cc1`, the pIC50 in data set [1] was 5.09. Besides, the negative logarithm of the EC50 (pEC50) in the data set on Hepatitis C virus was less than 3.90. Further, the CC50 at 72 h in data set [2] was more than 125 µM.

As for `CCOc1cc(/C=N/NC(=O)C(C)Oc2ccc([N+](=O)[O-])cc2)ccc1OC(=O)c1ccc(Cl)cc1Cl` (centres undefined), the inhibition with Hepacivirus hominis [6] was determined as 42.9%. The pEC50 with Hepatitis C virus was 4.64. Besides, in data set [2], the CC50 at 72 h was more than 125 µM. Further, the “Ratio CC50/EC50” value in data set [7] was more than 5.4.

As for `COc1cc(/C=N/NC(=O)COc2ccc([N+](=O)[O-])cc2)ccc1OC(=O)c1sc2ccccc2c1Cl`, in data set [1], the negative logarithm of the IC50 (pIC50) was 4.91. For the same molecule, in the data set on Hepatitis C virus, the pEC50 was 4.03. In addition, in data set [2], the CC50 at 72 h is more than 125 µM. The Ratio with Hepacivirus hominis [5] amounted to 10.
